Series [1] addresses T1, human Serotonin 5-HT1A receptor (Homo sapiens, UniProt P08908).
T1 sequence (P08908 1-422): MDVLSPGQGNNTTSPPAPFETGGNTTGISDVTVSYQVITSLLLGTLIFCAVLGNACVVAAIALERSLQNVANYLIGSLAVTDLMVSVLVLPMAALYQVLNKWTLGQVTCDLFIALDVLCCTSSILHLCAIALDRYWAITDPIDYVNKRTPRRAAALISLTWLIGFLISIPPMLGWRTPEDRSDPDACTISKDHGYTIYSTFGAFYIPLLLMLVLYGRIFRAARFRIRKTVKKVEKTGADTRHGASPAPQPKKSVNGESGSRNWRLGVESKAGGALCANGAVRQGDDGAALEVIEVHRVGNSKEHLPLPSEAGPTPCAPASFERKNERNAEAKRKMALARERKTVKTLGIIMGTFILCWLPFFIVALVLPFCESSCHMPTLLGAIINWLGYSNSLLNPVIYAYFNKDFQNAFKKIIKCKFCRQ
Particulars: cAMP; % of reference agonist at EC100.
Experimental: (§1) SPA ^35S-GTPgS experiments are conducted with membrane preparations. IP-One and cAMP HTRF assays are conducted with recombinant cell lines.
(§2) Agonist activity of test compounds is expressed as a percentage of the activity of the reference agonist at its EC100 concentration. Antagonist activity of the test compound is expressed as a percentage of the inhibition of reference agonist activity at its EC80 concentration.

The target in series [2] is T2, human Serotonin 5-HT2A receptor (Homo sapiens, UniProt P28223). Particulars: IP-one; % of reference agonist at EC100.
T2 sequence (P28223 whole entry): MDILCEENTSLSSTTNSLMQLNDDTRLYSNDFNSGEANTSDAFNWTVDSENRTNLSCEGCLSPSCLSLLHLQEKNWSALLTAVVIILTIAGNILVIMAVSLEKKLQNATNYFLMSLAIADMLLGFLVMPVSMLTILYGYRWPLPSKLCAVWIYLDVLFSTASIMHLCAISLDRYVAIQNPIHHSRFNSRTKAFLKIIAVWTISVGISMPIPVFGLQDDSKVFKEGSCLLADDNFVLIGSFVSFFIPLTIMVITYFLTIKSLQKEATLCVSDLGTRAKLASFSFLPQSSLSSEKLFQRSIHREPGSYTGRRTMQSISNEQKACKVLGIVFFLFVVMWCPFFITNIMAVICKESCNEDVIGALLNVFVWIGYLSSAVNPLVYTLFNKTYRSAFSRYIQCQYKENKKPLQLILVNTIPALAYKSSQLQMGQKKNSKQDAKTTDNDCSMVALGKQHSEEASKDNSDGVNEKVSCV
Experimental: as §1, §2
The test system of series [3] is Sprague Dawley rats. Nature of the series: Headshake response. The class given is in vivo, rat. As for the experimental part:
Adult male Sprague Dawley rats are used. […] DOI (3 mg/kg) is dissolved in saline and administered IP at a dose volume of 1 ml/kg (10 minutes prior to test).
The headshake response is a rapid, rhythmic shaking of the head in a radial motion. Data are analyzed by ANOVA followed by post hoc analysis where appropriate.

Series [4] deals with Sprague Dawley rats. Nature of the series: DOI-induced headshake response. The class given is in vivo. The note with it: rat. As for the experimental part:
Adult male Sprague Dawley rats are used. […] DOI (3 mg/kg) is dissolved in saline and administered IP at a dose volume of 1 ml/kg (10 minutes prior to test). Ketanserin (1 mg/kg) is dissolved in saline and injected IP 30 minutes prior to DOI at a dose volume of […].
Rats are then injected with DOI and headshakes are recorded 10 minutes after DOI injection for 10 minutes using video cameras. The headshake response is a rapid, rhythmic shaking of the head in a radial motion. Data is analyzed by ANOVA followed by post hoc analysis where appropriate.

The target in series [5] is T3, human Serotonin 5-HT7A receptor (Homo sapiens, UniProt P34969).
T3 construct: expressed in transfected cells; host or cells: CHO-K1
T3 sequence (P34969 1-445 isoform P34969-2): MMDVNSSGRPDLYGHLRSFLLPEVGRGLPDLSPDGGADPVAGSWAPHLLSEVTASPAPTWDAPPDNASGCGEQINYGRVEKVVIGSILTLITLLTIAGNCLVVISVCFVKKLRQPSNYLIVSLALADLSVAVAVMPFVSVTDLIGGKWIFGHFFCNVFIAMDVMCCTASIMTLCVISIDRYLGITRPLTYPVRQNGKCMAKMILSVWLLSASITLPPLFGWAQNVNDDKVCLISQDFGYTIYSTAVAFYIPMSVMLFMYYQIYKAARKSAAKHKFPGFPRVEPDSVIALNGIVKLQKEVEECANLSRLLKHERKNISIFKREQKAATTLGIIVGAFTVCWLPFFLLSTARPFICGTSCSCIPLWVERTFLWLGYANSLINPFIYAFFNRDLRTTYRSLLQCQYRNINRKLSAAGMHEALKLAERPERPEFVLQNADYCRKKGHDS
The series is described as follows: Radioligand binding competition, filtration, [3H]-LSD, CHO-K1 membranes.

In series [6] the target is T3, human Serotonin 5-HT7A receptor. Nature of the series: cAMP HTRF functional assay, antagonist mode. It counts as cell-based. A general note: Time-resolved FRET reads energy transfer from a long-lived donor to a nearby acceptor.
For series [7], the target named is T4, 5-HT1A (Homo sapiens, UniProt P08908).
T4 sequence (P08908 1-422): T1 sequence (P08908 1-422)
Nature of the series: Functional assay, antagonist mode (Table 6). It counts as cell-based. Particulars: read-out: 5-HT1A (antagonist mode) Emax.

Series [8] concerns the target 5-HT2B (Homo sapiens, UniProt P41595). The series is described as follows: Functional assay, antagonist mode (Table 6). The class given is cell-based.
Series [9] deals with Sprague Dawley rats. The series is described as follows: Touchscreen-based rat Probabilistic Reward Task. It counts as in vivo.
Text: The Probabilistic Reward Task (PRT) uses visual discrimination methodology to quantify reward responsiveness to both identify deficits and characterize drug-induced improvements.
Male Sprague Dawley rats are used in the present study.
Briefly, a custom-built Plexiglas chamber (25×30×35 cm) is situated in a sound- and light-attenuating enclosure (40×60×45 cm). A 17″ touch-sensitive screen (1739L, ELO TouchSystems, Menlo Park, CA) comprises the inside right-hand wall of the enclosure. An infusion pump (PHM-100-5, Med Associates, St. Albans, VT) outside the enclosure is used to deliver sweetened condensed milk solution into the shallow reservoir of a custom-designed aluminum receptacle. The receptacle is mounted 3 cm above the floor bars and centered on the left-hand inside wall. Both touchscreen and fluid reservoir are easily accessible to the subject. A speaker bar (NQ576AT, Hewlett-Packard, Palo Alto, CA) mounted above the touchscreen is used to emit audible feedback. All experimental events and data collection are programmed in E-Prime Professional 2.0 (Psychology Software Tools, Inc., Sharpsburg, PA). […]
Following line-length discrimination training, probabilistic reinforcement schedules are introduced. […] These probabilistic contingencies are assessed across 5 consecutive sessions prior to initiation of drug testing. […]
The target in series [10] is human Dopamine D2L receptor (Homo sapiens, UniProt P14416). Particulars: cAMP, % inhibition of reference agonist at EC80.
Chain of human Dopamine D2L receptor (P14416 whole entry): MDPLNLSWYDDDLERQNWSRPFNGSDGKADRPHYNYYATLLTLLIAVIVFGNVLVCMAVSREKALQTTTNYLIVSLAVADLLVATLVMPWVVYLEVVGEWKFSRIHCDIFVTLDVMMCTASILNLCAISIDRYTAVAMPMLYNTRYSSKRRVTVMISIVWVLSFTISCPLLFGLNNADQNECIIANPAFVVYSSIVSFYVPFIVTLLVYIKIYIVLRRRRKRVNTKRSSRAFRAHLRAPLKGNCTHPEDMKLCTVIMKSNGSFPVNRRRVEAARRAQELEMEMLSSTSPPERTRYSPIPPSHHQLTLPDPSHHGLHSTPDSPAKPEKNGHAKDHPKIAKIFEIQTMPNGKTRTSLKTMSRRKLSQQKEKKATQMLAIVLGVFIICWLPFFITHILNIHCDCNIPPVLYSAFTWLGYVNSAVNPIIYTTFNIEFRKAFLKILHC
Experimental: as §1, §2
Series [11] relates to Sprague Dawley rats. Particulars: rat, in vivo, po, 5 mg/kg.
Text: (§3) The Conditioned Avoidance Response (CAR) Test is an animal model screening for antipsychotic drugs.
Series [12] deals with Sprague Dawley rats. Nature of the series: Conditioned Avoidance Response test. Particulars: rat.
Text: as §3
Series [13] addresses human Dopamine D2S receptor (Homo sapiens, UniProt P14416). Particulars: cAMP, % inhibition of reference agonist at EC80.
Experimental: (§4) IP-One and cAMP HTRF assays are conducted with recombinant cell lines.
as §2
Series [14] addresses human Dopamine D3 receptor (Homo sapiens, UniProt P35462). The note with it: GTPγS; % inhibition of reference agonist at EC80.
Experimental: as §1, §2
The target in series [15] is T5, human Dopamine D4.4 receptor (Homo sapiens, UniProt P21917).
T5 sequence (P21917 1-419): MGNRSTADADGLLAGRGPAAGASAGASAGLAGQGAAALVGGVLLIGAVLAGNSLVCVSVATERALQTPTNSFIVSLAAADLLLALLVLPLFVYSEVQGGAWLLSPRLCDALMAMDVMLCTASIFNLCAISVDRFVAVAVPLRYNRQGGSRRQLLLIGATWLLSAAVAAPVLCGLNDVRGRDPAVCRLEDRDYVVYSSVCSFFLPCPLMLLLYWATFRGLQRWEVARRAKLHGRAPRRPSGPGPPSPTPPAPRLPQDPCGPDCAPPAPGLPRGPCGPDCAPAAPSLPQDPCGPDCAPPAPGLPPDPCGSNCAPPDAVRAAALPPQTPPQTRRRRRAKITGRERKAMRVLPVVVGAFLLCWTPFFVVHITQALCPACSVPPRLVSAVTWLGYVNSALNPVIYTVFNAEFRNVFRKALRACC
The note with it: cAMP; % inhibition of reference agonist at EC80.
Experimental: as §1, §2

Series [16] concerns the target T2, human Serotonin 5-HT2A receptor. Nature of the series: IP-One HTRF functional assay, antagonist mode. The class given is cell-based. Set-up: expressed in transfected cells; host or cells: CHO-K1. Particulars: % inhibition of reference agonist at EC80.
Experimental: as §4, §2
Setting [17] is: 2.5 and 5 mg/kg orally 4 hours prior to test.
Where [18] appears, read: 0.5 mg/kg i.p. 30 minutes prior to test.

SMILES strings stand for the structures.

Chain of 5-HT2B (P41595 whole entry): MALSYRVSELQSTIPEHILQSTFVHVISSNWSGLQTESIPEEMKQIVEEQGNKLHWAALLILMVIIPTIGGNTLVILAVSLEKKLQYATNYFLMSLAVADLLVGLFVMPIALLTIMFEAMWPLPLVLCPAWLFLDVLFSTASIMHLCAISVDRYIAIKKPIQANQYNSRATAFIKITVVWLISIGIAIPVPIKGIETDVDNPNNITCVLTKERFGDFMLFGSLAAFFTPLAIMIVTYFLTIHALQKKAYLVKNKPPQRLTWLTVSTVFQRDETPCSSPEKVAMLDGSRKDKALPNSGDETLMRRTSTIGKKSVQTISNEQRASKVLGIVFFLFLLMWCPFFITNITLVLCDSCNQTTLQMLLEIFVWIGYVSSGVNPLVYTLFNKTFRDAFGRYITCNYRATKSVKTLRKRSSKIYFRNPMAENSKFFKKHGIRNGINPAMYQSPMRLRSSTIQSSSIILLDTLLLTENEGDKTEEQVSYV
Chain of human Dopamine D3 receptor (P35462 whole entry): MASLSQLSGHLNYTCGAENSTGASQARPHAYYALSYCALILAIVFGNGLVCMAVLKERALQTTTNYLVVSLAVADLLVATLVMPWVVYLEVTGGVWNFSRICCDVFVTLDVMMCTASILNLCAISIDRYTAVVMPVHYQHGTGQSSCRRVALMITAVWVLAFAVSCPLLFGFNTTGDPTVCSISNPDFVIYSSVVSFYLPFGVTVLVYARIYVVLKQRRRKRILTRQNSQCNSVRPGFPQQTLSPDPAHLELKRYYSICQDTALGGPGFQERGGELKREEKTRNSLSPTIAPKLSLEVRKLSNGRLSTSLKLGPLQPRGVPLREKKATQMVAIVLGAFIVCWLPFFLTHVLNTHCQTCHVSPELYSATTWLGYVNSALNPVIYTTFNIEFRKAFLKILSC
Chain of human Dopamine D2S receptor (P14416 1-414 isoform P14416-2): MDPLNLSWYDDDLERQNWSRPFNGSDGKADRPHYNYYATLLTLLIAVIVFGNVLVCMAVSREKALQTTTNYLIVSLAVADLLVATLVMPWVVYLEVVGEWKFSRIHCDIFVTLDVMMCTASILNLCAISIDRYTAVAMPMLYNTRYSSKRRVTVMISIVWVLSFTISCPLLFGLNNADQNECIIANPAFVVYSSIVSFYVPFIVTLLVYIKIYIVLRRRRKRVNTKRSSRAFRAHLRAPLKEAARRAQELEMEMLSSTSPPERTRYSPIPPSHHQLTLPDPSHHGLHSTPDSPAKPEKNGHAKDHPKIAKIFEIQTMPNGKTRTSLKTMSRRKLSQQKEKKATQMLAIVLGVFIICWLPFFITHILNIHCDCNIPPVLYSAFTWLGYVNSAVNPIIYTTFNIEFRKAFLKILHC

Take `CNc1cc(OC)c(C(=O)N[C@H]2CCN(Cc3ccccc3)[C@H]2C)cc1Cl` (racemic) [Nemonapride, (±)-cis-N-(1-Benzyl-2-methylpyrrolidin-3-yl)-5-chloro-2-methoxy-4-methylaminobenzamide]: in [1], the “5-HT1A (agonist mode) Top % Activation at maximal concentration” value is given as “cAMP 52%”. Moreover, the “5-HT2A (agonist mode) Top % Activation at maximal concentration” value in [2] is “IP-one 48%”.

`COc1cc(CC(C)N)c(OC)cc1I` (centres unmarked) [DOI, reference compound]: the “number of headshakes compared to vehicle” value in series [3] (rat, 3 mg/kg IP 10 minutes prior to test) is given as “significantly increases”; in [4] (DOI 3 mg/kg IP) it was “significantly increases”.

Take `[2H]C([2H])([2H])Nc1cc(OC)c(C(=O)N[C@H]2CCN(C([2H])([2H])c3ccccc3)[C@H]2C)cc1Cl` [Example A1, 5-Chloro-N-((2S,3S)-1-(dideutero(phenyl)methyl)-2-methylpyrrolidin-3-yl)-2-methoxy-4-(trideuteromethylamino)benzamide]: affinity in [5] was put at a Ki of 74.4 nM. For the same molecule, half-maximal inhibition in series [6] (IC50) required 2240 nM. Also, the Emax (in general, the greatest response seen or fitted, relative to the assay's reference) in [7] was 63%; in [8] it was 92%. The “log b vs vehicle, Cohen's d” value in [9] (0.5 mg/kg orally, n=8, paired t-test p=0.006) is listed as 1.21; in series [9] (1 mg/kg orally, n=8, paired t-test p=0.04), 0.75. The “number of headshakes compared to vehicle” value in [3] (rat, 1, 5 and 10 mg/kg PO 4 hours prior to test) is “no significant increase”. Moreover, the DOI-induced headshake responses entry in [4] (1 mg/kg PO 4 hours prior, DOI 3 mg/kg IP, p=0.051) is “non-significant trend to decreasing”; in [4] (5 and 10 mg/kg PO 4 hours prior, DOI 3 mg/kg IP), “decrease”. For the same molecule, in series [10], the “D2 (antagonist mode) Top % Inhibition at maximal concentration, D2L” value is on record as “cAMP 81 (D2L) %”. For the same molecule, in [11], the “escape failures compared to vehicle” value is recorded as “increase”. For the same molecule, in series [12] (setting [17]), the “number of avoidance responses compared to vehicle” value is “significantly decrease”. In series [12] (setting [17]), the “percent avoidance compared to vehicle” value is “significantly decrease”.

For `O=C(c1ccc(F)cc1)C1CCN(CCn2c(=O)[nH]c3ccccc3c2=O)CC1` [Ketanserin, reference compound], the DOI-induced headshake responses entry in [4] (1 mg/kg IP 30 minutes prior to DOI 3 mg/kg IP) was “decrease”.

In the case of `CNc1cc(OC)c(C(=O)N[C@H]2CCN(Cc3ccccc3)[C@H]2C)cc1Cl` [cis (S,S) nemonapride, N-[(2S,3S)-1-benzyl-2-methylpyrrolidin-3-yl]-5-chloro-2-methoxy-4-(methylamino)benzamide], in [5], the IC50 (usually the concentration at which inhibition is half-maximal) turned out to be 167 nM and the affinity corresponds to a Ki of 117 nM. The “D2 (antagonist mode) Top % Inhibition at maximal concentration, D2S” value in series [13] is listed as “cAMP 88 (D2S) %”. Also, in series [10], the “D2 (antagonist mode) Top % Inhibition at maximal concentration, D2L” value is reported as “cAMP 84 (D2L) %”. Also, the “D3 (antagonist mode) Top % Inhibition at maximal concentration” value in [14] is listed as “GTPγS 117%”. Moreover, the “D4 (antagonist mode) Top % Inhibition at maximal concentration” value in series [15] is on record as “cAMP 67%”. In series [1], the “5-HT1A (agonist mode) Top % Activation at maximal concentration” value is recorded as “cAMP 17%”. The “5-HT2A (agonist mode) Top % Activation at maximal concentration” value in series [2] was “IP-one 29%”. Besides, the “5-HT2A (antagonist mode) Top % Inhibition at maximal concentration” value in series [16] is “IP-one 52%”.

With `Cc1nc2n(c(=O)c1CCN1CCC(c3noc4cc(F)ccc34)CC1)CCCC2` [risperidone, Risperidone, reference compound], in [12] (setting [18]), the “number of avoidance responses compared to vehicle” value was “significantly decrease” and the “percent avoidance compared to vehicle” value is “significantly decrease”.

Values taken from patent US12606523B2, “Deuterated organic compounds and uses thereof” (ENGRAIL THERAPEUTICS, INC., priority 2022, dated 2026).
